Measured values: US9133148B2, “Carbamate compounds and of making and using same” (Abide Therapeutics, Inc., priority 2012, dated 2015)

Tests used:
Assay type in all cases: biochemical
Conditions in all cases: mouse brain membrane proteome
[1] = biological target: FAAH (Mus musculus (Mouse), UniProt O08914); experiment: In vitro competitive activity-based protein profiling (FP-Rh), mouse FAAH
Method: (§1) In Vitro Competitive Activity-Based Protein Profiling.
(§2) Proteomes (mouse brain membrane fraction or cell lysates) ([…], 1.0 mg/mL total protein concentration) were preincubated with varying concentrations of inhibitors at 37° C. After 30 min, FP-Rh (1.0 μL, 50 μM in DMSO) was added and the mixture was incubated for another 30 min at 37° C. Reactions were quenched with SDS loading buffer (50 μL—4×) and run on SDS-PAGE.

[2] = biological target: MAGL (Mus musculus (Mouse), UniProt O35678); experiment: In vitro competitive activity-based protein profiling (FP-Rh), mouse MAGL
Chain of MAGL (O35678 whole entry): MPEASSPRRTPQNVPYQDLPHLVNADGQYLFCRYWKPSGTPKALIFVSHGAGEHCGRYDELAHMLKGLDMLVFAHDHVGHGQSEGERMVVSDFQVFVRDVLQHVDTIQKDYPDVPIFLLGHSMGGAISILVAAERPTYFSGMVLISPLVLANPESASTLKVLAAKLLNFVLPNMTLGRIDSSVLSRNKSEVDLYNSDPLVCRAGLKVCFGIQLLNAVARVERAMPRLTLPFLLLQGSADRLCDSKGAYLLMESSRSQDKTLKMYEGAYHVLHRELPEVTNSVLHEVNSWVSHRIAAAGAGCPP
Method: as §1, §2

[3] = biological target: ABHD6 (Mus musculus (Mouse), UniProt Q8R2Y0); experiment: In vitro competitive activity-based protein profiling (FP-Rh), mouse ABHD6
Chain of ABHD6 (Q8R2Y0 whole entry): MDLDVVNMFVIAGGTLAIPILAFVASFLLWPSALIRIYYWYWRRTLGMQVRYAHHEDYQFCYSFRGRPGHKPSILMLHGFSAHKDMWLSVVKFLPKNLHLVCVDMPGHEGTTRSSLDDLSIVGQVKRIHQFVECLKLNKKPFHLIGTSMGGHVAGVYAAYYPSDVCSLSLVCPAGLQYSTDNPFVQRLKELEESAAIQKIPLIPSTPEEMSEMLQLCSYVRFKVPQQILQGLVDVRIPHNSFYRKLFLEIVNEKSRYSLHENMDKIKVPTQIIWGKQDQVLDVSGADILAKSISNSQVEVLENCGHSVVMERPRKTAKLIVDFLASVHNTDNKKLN
Method: as §1, §2

Chain of FAAH (O08914 whole entry): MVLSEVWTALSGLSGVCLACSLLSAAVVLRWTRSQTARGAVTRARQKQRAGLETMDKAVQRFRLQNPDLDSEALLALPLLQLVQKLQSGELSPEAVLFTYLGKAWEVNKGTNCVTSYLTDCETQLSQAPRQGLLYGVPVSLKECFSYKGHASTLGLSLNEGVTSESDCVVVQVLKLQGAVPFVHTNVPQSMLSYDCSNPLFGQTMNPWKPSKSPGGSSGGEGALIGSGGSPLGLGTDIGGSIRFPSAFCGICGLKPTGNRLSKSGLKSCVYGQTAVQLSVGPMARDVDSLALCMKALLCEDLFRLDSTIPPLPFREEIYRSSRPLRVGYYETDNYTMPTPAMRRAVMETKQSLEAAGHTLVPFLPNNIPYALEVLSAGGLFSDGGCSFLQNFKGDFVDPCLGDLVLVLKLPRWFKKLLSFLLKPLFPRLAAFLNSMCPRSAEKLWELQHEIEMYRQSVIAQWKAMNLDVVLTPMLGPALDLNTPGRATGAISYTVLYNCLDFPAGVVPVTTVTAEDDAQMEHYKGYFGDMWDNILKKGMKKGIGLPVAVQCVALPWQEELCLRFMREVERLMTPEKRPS

Row | Structure (SMILES) | IC50 ([1]; competitive ABPP (Table 7)) | IC50 ([2]; competitive ABPP (Table 7)) | also measured
1 | O=C(OC(C(F)(F)F)C(F)(F)F)N1CCN(C(c2ccc(-c3ccccc3)cc2)c2ccc3c(c2)OCO3)CC1 (centres unmarked) [Example 2g] | – | – | IC50 ([1]; competitive ABPP): > 10000 nM; IC50 ([2]; competitive ABPP): > 1000 nM; IC50 ([3]; competitive ABPP): > 1000 nM
2 | Cc1nn(-c2ccccc2)cc1CN1CCN(C(=O)OC(C(F)(F)F)C(F)(F)F)CC1 [Example 10c, 1,1,1,3,3,3-hexafluoropropan-2-yl 4-((3-methyl-1-phenyl-1H-pyrazol-4-yl)methyl)piperazine-1-carboxylate] | > 6250 nM | – | –
3 | O=C(OC(C(F)(F)F)C(F)(F)F)N1CCN(Cc2ccc(Cl)cc2N2CCOCC2)CC1 [Example 9t, 1,1,1,3,3,3-hexafluoropropan-2-yl 4-(4-chloro-2-morpholinobenzyl)piperazine-1-carboxylate] | > 6250 nM | – | –
4 | O=C(OC(C(F)(F)F)C(F)(F)F)N1CCN(Cc2ccc(C(F)(F)F)cc2N2CCCC2)CC1 [Example 9aq, 1,1,1,3,3,3-hexafluoropropan-2-yl 4-(2-(pyrrolidin-1-yl)-4-(trifluoromethyl)benzyl)piperazine-1-carboxylate] | > 10000 nM | – | –
5 | O=C(OC(C(F)(F)F)C(F)(F)F)N1CCN(Cc2cc(-c3ccccc3)on2)CC1 [Example 10b, 1,1,1,3,3,3-hexafluoropropan-2-yl 4-((5-phenylisoxazol-3-yl)methyl)piperazine-1-carboxylate] | – | 100 to 1000 nM | –
6 | CC(C)n1cc(CN2CCN(C(=O)OC(C(F)(F)F)C(F)(F)F)CC2)c(-c2ccccc2)n1 [Example 10h, 1,1,1,3,3,3-hexafluoropropan-2-yl 4-[[3-phenyl-1-(propan-2-yl)-1H-pyrazol-4-yl]methyl]piperazine-1-carboxylate] | > 10000 nM | 100 to 1000 nM | IC50 ([3]; competitive ABPP (Table 7)): 100 to 1000 nM
7 | O=C(OC(C(F)(F)F)C(F)(F)F)N1CCN(Cc2ccc(Cl)cc2-n2cccn2)CC1 [Example 9ae, 1,1,1,3,3,3-hexafluoropropan-2-yl 4-(4-chloro-2-(1H-pyrazol-1-yl)benzyl)piperazine-1-carboxylate] | > 10000 nM | 100 to 1000 nM | IC50 ([3]; competitive ABPP (Table 7)): 100 to 1000 nM
8 | COc1ccc(CN2CCN(C(=O)OC(C(F)(F)F)C(F)(F)F)CC2)cc1 [Example 9v, 1,1,1,3,3,3-hexafluoropropan-2-yl 4-(4-methoxybenzyl)piperazine-1-carboxylate] | > 6250 nM | < 100 nM | IC50 ([3]; competitive ABPP (Table 7)): 100 to 1000 nM
9 | COC(=O)C(OC(=O)N(C)CCc1ccccc1)C(F)(F)F (centres unmarked) [Example 7k, Methyl 3,3,3-trifluoro-2-((methyl(phenethyl)carbamoyl)oxy)propanoate] | – | – | IC50 ([1]; competitive ABPP): > 10000 nM; IC50 ([2]; competitive ABPP): > 1000 nM; IC50 ([3]; competitive ABPP): > 1000 nM
10 | CN(Cc1cccc(-c2ccncc2)c1)C(=O)OC(C(F)(F)F)C(F)(F)F [Example 3f, 1,1,1,3,3,3-hexafluoropropan-2-yl methyl(3-(pyridin-4-yl)benzyl)-carbamate] | – | – | IC50 ([1]; competitive ABPP): > 10000 nM; IC50 ([3]; competitive ABPP): 100 to 1000 nM
11 | Cc1cc(N2CCOCC2)ccc1CN1CCN(C(=O)OC(C(F)(F)F)C(F)(F)F)CC1 [Example 9p, 1,1,1,3,3,3-hexafluoropropan-2-yl 4-(2-methyl-4-morpholinobenzyl)piperazine-1-carboxylate] | – | < 100 nM | –
12 | O=C(OC(C(F)(F)F)C(F)(F)F)N1CCN(C(c2cocn2)c2cocn2)CC1 [Example 2i, 1,1,1,3,3,3-hexafluoropropan-2-yl 4-(bis(oxazol-4-yl)methyl)piperazine-1-carboxylate] | – | – | IC50 ([1]; competitive ABPP): > 6000 nM
13 | O=C(OC(C(F)(F)F)C(F)(F)F)N1CCN(Cc2ccc(-c3ccccc3)cc2F)CC1 [Example 11p, 1,1,1,3,3,3-hexafluoropropan-2-yl 4-[(2-fluoro-4-phenylphenyl)methyl]piperazine-1-carboxylate] | > 10000 nM | < 100 nM | IC50 ([3]; competitive ABPP (Table 7)): > 1000 nM
14 | O=C(OC(C(F)(F)F)C(F)(F)F)N1CCN(Cc2cc(Cl)ccc2N2CCOCC2)CC1 [Example 9ag, 1,1,1,3,3,3-hexafluoropropan-2-yl 4-[[5-chloro-2-(morpholin-4-yl)phenyl]methyl]piperazine-1-carboxylate] | > 10000 nM | – | IC50 ([3]; competitive ABPP (Table 7)): > 1000 nM
15 | CC(=O)N1CCN(c2cc(Cl)ccc2CN2CCN(C(=O)OC(C(F)(F)F)C(F)(F)F)CC2)CC1 [Example 9aw, 1,1,1,3,3,3-hexafluoropropan-2-yl 4-(2-(4-acetylpiperazin-1-yl)-4-chlorobenzyl)piperazine-1-carboxylate] | > 10000 nM | 100 to 1000 nM | IC50 ([3]; competitive ABPP (Table 7)): > 1000 nM
16 | Cc1cc(-c2ccccc2)ccc1CN1CCN(C(=O)OC(C(F)(F)F)C(F)(F)F)CC1 [Example 11q, 1,1,1,3,3,3-hexafluoropropan-2-yl 4-[(2-methyl-4-phenylphenyl)methyl]piperazine-1-carboxylate] | > 10000 nM | 100 to 1000 nM | IC50 ([3]; competitive ABPP (Table 7)): > 1000 nM
17 | O=C(OC(C(F)(F)F)C(F)(F)F)N1CCN(Cc2ccc(N3CCCC3)cc2Cl)CC1 [Example 9ab, 1,1,1,3,3,3-hexafluoropropan-2-yl 4-[[2-chloro-4-(pyrrolidin-1-yl)phenyl]methyl]piperazine-1-carboxylate] | > 10000 nM | 100 to 1000 nM | IC50 ([3]; competitive ABPP (Table 7)): > 1000 nM

Row | Structure (SMILES) | IC50 ([1]; competitive ABPP (Table 7)) | IC50 ([2]; competitive ABPP (Table 7)) | also measured
18 | O=C(Oc1ccc([N+](=O)[O-])cc1)N1CCC(C(O)(c2ccc3c(c2)OCO3)c2ccc3c(c2)OCO3)CC1 [A, 4-nitrophenyl 4-(dibenzo[d][1,3]dioxol-5-yl(hydroxy)methyl)piperidine-1-carboxylate, reference compound] | – | – | IC50 ([1]; competitive ABPP): 4700 nM; IC50 ([3]; competitive ABPP): 100 to 1000 nM
19 | Cn1cc(CN2CCN(C(=O)OC(C(F)(F)F)C(F)(F)F)CC2)c(-c2ccccc2)n1 [Example 10e, 1,1,1,3,3,3-hexafluoropropan-2-yl 4-((1-methyl-3-phenyl-1H-pyrazol-4-yl)methyl)piperazine-1-carboxylate] | > 10000 nM | – | –
20 | O=C(OC(C(F)(F)F)C(F)(F)F)N1CCN(C(c2cccnc2)c2cccnc2)CC1 [Example 2l, 1,1,1,3,3,3-hexafluoropropan-2-yl 4-(di(pyridin-3-yl)methyl)piperazine-1-carboxylate] | – | – | IC50 ([1]; competitive ABPP): > 10000 nM
21 | O=C(OC(C(F)(F)F)C(F)(F)F)N1CCN(Cc2cccc(Cl)c2N2CCOCC2)CC1 [Example 9ad, 1,1,1,3,3,3-hexafluoropropan-2-yl 4-[[3-chloro-2-(morpholin-4-yl)phenyl]methyl]piperazine-1-carboxylate] | > 10000 nM | – | –
22 | O=C(OC(C(F)(F)F)C(F)(F)F)N1CCN(Cc2ccccc2N2CCOCC2)CC1 [Example 9y, 1,1,1,3,3,3-hexafluoropropan-2-yl 4-(2-morpholinobenzyl)piperazine-1-carboxylate] | > 250 nM | < 100 nM | –
23 | O=C(OC(C(F)(F)F)C(F)(F)F)N1CCN(Cc2ccc(Br)cc2N2CCOCC2)CC1 [Example 9r, 1,1,1,3,3,3-hexafluoropropan-2-yl 4-(4-bromo-2-morpholinobenzyl)piperazine-1-carboxylate] | – | < 100 nM | –
24 | Cn1ncc(Br)c1CN1CCN(C(=O)OC(C(F)(F)F)C(F)(F)F)CC1 [Example 10f, 1,1,1,3,3,3-hexafluoropropan-2-yl 4-((4-bromo-1-methyl-1H-pyrazol-5-yl)methyl)piperazine-1-carboxylate] | – | 100 to 1000 nM | –
25 | Cn1cc(CN2CCN(C(=O)OC(C(F)(F)F)C(F)(F)F)CC2)c(-c2ccccc2Cl)n1 [l0g, 1,1,1,3,3,3-hexafluoropropan-2-yl 4-[[3-(2-chlorophenyl)-1-methyl-1H-pyrazol-4-yl]methyl]piperazine-1-carboxylate] | > 10000 nM | – | –
26 | O=C(OC(C(F)(F)F)C(F)(F)F)N1CCN(Cc2ccc(Cl)cc2N2CCCC2)CC1 [Example 9z, 1,1,1,3,3,3-hexafluoropropan-2-yl 4-(4-chloro-2-(pyrrolidin-1-yl)benzyl)piperazine-1-carboxylate] | > 10000 nM | – | –
27 | O=C(OC(C(F)(F)F)C(F)(F)F)N1CCN(C(c2ccc(Cl)cc2)c2ccc(Cl)cc2)CC1 [Example 2b, 1,1,1,3,3,3-hexafluoropropan-2-yl 4-(bis(4-chlorophenyl)methyl)-piperazine-1-carboxylate] | – | – | IC50 ([1]; competitive ABPP): > 10000 nM
28 | O=C(OC(C(F)(F)F)C(F)(F)F)N1CCN(Cc2ccc(Br)cc2N2CCCCC2)CC1 [Example 9q, 1,1,1,3,3,3-hexafluoropropan-2-yl 4-(4-bromo-2-(piperidin-1-yl)benzyl)piperazine-1-carboxylate] | – | 100 to 1000 nM | –
29 | Cn1nc(-c2ccccc2)cc1CN1CCN(C(=O)OC(C(F)(F)F)C(F)(F)F)CC1 [Example 10d, 1,1,1,3,3,3-hexafluoropropan-2-yl 4-((1-methyl-3-phenyl-1H-pyrazol-5-yl)methyl)piperazine-1-carboxylate] | > 10000 nM | – | –
30 | Cc1cc(Cl)ccc1C(c1ccc(Cl)cc1C)N1CCN(C(=O)OC(C(F)(F)F)C(F)(F)F)CC1 [Example 2j, 1,1,1,3,3,3-hexafluoropropan-2-yl 4-(bis(4-chloro-2-methylphenyl)methyl)piperazine-1-carboxylate] | – | – | IC50 ([1]; competitive ABPP): > 10000 nM; IC50 ([3]; competitive ABPP): > 1000 nM
31 | O=C(OC(C(F)(F)F)C(F)(F)F)N1CCN(Cc2ccc(-c3ccccc3)cc2N2CCOCC2)CC1 [Example 11f, 1,1,1,3,3,3-hexafluoropropan-2-yl 4-((3-morpholino-[1,1′-biphenyl]-4-yl)methyl)piperazine-1-carboxylate] | – | > 1000 nM | –
32 | O=C(OC(C(F)(F)F)C(F)(F)F)N1CCN(Cc2ccc(Br)cc2N2CCCC2)CC1 [Example 9x, 1,1,1,3,3,3-hexafluoropropan-2-yl 4-(4-bromo-2-(pyrrolidin-1-yl)benzyl)piperazine-1-carboxylate] | > 250 nM | – | –
33 | O=C(OC(C(F)(F)F)C(F)(F)F)N1CCN(Cc2ccc(C(F)(F)F)cc2N2CCOCC2)CC1 [Example 9c, 1,1,1,3,3,3-hexafluoropropan-2-yl 4-[[2-(morpholin-4-yl)-4-(trifluoromethyl)phenyl]methyl]piperazine-1-carboxylate] | > 10000 nM | – | –
